Assay results from ChEMBL document CHEMBL1201862, “PubChem BioAssay data set” (2004).
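96-well plates; 48 h exposure; 5 concentrations. Endpoints by linear interpolation between flanking doses. Not reached: highest tested concentration assigned. GI50 marks 50% less growth.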 The source made the active and inactive calls. No stated cut-off is given here; in the data, active = GI50 up to about 1.1 µM and inactive = higher.

Columns and labels:
Assay in all cases: inhibition of tumour cell growth, NCI panel, 48 h
[1] = system: HT-29
[2] = system: NCI-H460
[3] = system: OVCAR-4
[4] = system: ACHN
[5] = system: A549
[6] = system: SF-268
[7] = system: MDA-MB-435
[8] = system: MCF7
[9] = system: NCI-H522
[10] = system: SW-620
[11] = system: NCI/ADR-RES
[12] = system: CAKI-1
[13] = system: SK-MEL-28
[14] = system: LOX IMVI
[15] = system: SF-539
[16] = system: U-251
[17] = system: MDA-MB-231
[18] = system: HL-60
[19] = system: EKVX
[20] = system: OVCAR-5
[21] = system: SK-OV-3
[22] = system: K562
[23] = system: UACC-62
[24] = system: SK-MEL-5
[25] = system: SN12C
[26] = system: PC-3
[27] = system: Malme-3M
[28] = system: IGROV-1
[29] = system: RPMI-8226
[30] = system: DU-145
[31] = system: MOLT-4
[32] = system: SF-295
[33] = system: RXF 393
[34] = system: NCI-H23
[35] = system: SNB-19
[36] = system: 786-0
[37] = system: SK-MEL-2
[38] = system: MDA-N
[39] = system: KM12
[40] = system: COLO 205
[41] = system: HOP-92
[42] = system: NCI-H226
[43] = system: M14
[44] = system: HCT-116
[45] = system: TK-10
[46] = system: Hs-578T
[47] = system: SNB-75
[48] = system: OVCAR-3
[49] = system: CCRF-CEM
[50] = system: HCT-15
[51] = system: OVCAR-8
[52] = system: UACC-257
[53] = system: SR
[54] = system: HOP-62
[55] = system: UO-31
[56] = system: T47D
[57] = system: A498
[58] = system: HCC 2998

## Nc1ncc2c(n1)-c1ccccc1OC2N1CCCC1 (configuration not stated)
[1]
  GI50: > 100 µM (inactive)
[2]
  GI50: > 100 µM (inactive)
[3]
  GI50: > 100 µM (inactive)
[4]
  GI50: > 100 µM (inactive)
[5]
  GI50: > 100 µM (inactive)
[6]
  GI50: > 100 µM (inactive)
[7]
  GI50: > 100 µM (inactive)
[8]
  GI50: > 100 µM (inactive)
[9]
  GI50: > 100 µM (inactive)
[10]
  GI50: > 100 µM (inactive)
[11]
  GI50: > 100 µM (inactive)
[12]
  GI50: > 100 µM (inactive)
[13]
  GI50: > 100 µM (inactive)
[14]
  GI50: > 100 µM (inactive)
[15]
  GI50: > 100 µM (inactive)
[16]
  GI50: > 100 µM (inactive)
[17]
  GI50: > 100 µM (inactive)
[18]
  GI50: 1.9 µM (inactive)
[19]
  GI50: 41.5 µM (inactive)
[20]
  GI50: > 100 µM (inactive)
[21]
  GI50: > 100 µM (inactive)
[22]
  GI50: > 100 µM (inactive)
[23]
  GI50: > 100 µM (inactive)
[24]
  GI50: > 100 µM (inactive)
[25]
  GI50: > 100 µM (inactive)
[26]
  GI50: > 100 µM (inactive)
[27]
  GI50: > 100 µM (inactive)
[28]
  GI50: 80.7 µM (inactive)
[29]
  GI50: > 100 µM (inactive)
[30]
  GI50: > 100 µM (inactive)
[31]
  GI50: > 100 µM (inactive)
[32]
  GI50: > 100 µM (inactive)
[33]
  GI50: 94.8 µM (inactive)
[34]
  GI50: > 100 µM (inactive)
[35]
  GI50: > 100 µM (inactive)
[36]
  GI50: > 100 µM (inactive)
[37]
  GI50: > 100 µM (inactive)
[38]
  GI50: > 100 µM (inactive)
[39]
  GI50: > 100 µM (inactive)
[40]
  GI50: > 100 µM (inactive)
[41]
  GI50: 83.9 µM (inactive)
[42]
  GI50: > 100 µM (inactive)
[43]
  GI50: > 100 µM (inactive)
[44]
  GI50: > 100 µM (inactive)
[45]
  GI50: > 100 µM (inactive)
[46]
  GI50: > 100 µM (inactive)
[47]
  GI50: 29 µM (inactive)
[48]
  GI50: > 100 µM (inactive)
[49]
  GI50: > 100 µM (inactive)
[50]
  GI50: > 100 µM
[51]
  GI50: > 100 µM (inactive)
[52]
  GI50: > 100 µM (inactive)
[53]
  GI50: > 100 µM (inactive)
[54]
  GI50: > 100 µM (inactive)
[55]
  GI50: 92 µM (inactive)

## CN(C)c1ccc(/C=C/c2ccc(S(N)(=O)=O)cc2)cc1
[2]
  GI50: 14.9 µM (inactive)
[56]
  GI50: 27 µM (inactive)
[8]
  GI50: 13.4 µM (inactive)
[10]
  GI50: 11.1 µM (inactive)
[11]
  GI50: 14.8 µM (inactive)
[13]
  GI50: 11.5 µM (inactive)
[17]
  GI50: 13.5 µM (inactive)
[19]
  GI50: 21.8 µM (inactive)
[20]
  GI50: 18 µM (inactive)
[21]
  GI50: 17 µM (inactive)
[24]
  GI50: 11.3 µM (inactive)
[25]
  GI50: 20.4 µM (inactive)
[26]
  GI50: 14.8 µM (inactive)
[27]
  GI50: 14 µM (inactive)
[30]
  GI50: 13.6 µM (inactive)
[32]
  GI50: 24.3 µM (inactive)
[33]
  GI50: 20.7 µM (inactive)
[35]
  GI50: 20.2 µM (inactive)
[36]
  GI50: 16.9 µM (inactive)
[37]
  GI50: 28.2 µM (inactive)
[38]
  GI50: 11.8 µM (inactive)
[40]
  GI50: 24.5 µM (inactive)
[43]
  GI50: 15.8 µM (inactive)
[44]
  GI50: 23.1 µM (inactive)
[45]
  GI50: 20.5 µM (inactive)
[47]
  GI50: 22.7 µM (inactive)
[48]
  GI50: 20.4 µM (inactive)
[57]
  GI50: 17.7 µM (inactive)
[58]
  GI50: 34 µM (inactive)
[52]
  GI50: 46.5 µM (inactive)
[54]
  GI50: 18.7 µM (inactive)
[55]
  GI50: 17.7 µM (inactive)
